Several values for one entry are separate records, joined by “and”; a condition that tells them apart may be missing. Equal values may be shown once. Inconclusive results and toxic doses are left out. Rule for the calls: active = survival T/C of 150% or more; inactive = T/C below 125% in these data.
System: P388 leukemia ip, CD2F1 mice, survival T/C
Test: NCI In Vivo Anticancer Drug Screen. Data for tumor model P388 Leukemia (intraperitoneal) in CD2F1 (CDF1) mice
Details: endpoint: median survival time, higher = longer survival
Outline: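 Mice carrying the transplanted tumor received test compound or vehicle. Survival was recorded in each group, and the value is the treated-group measurement divided by that of the vehicle-treated control group.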

[1] = dose: 100.0 mg/kg/injection, schedule: Q01DX009 (ip), vehicle: saline with Tween-80
[2] = dose: 6.25 mg/kg/injection, schedule: Q01DX009 (ip), vehicle: saline
[3] = dose: 12.5 mg/kg/injection, schedule: Q01DX009 (ip), vehicle: saline
[4] = dose: 25.0 mg/kg/injection, schedule: Q01DX009 (ip), vehicle: saline
[5] = dose: 50.0 mg/kg/injection, schedule: Q01DX009 (ip), vehicle: saline with Tween-80
[6] = dose: 200.0 mg/kg/injection, schedule: Q01DX009 (ip), vehicle: saline with Tween-80
[7] = dose: 50.0 mg/kg/injection, schedule: Q01DX005 (ip), vehicle: saline with Tween-80

Measured: T/C

C/C=C/[Se]c1ccccc1
inactive: dose: 6.25 mg/kg/injection, schedule: Q01DX009 (ip), vehicle: saline with Tween-80 103 % of control | dose: 12.5 mg/kg/injection, schedule: Q01DX009 (ip), vehicle: saline with Tween-80 106 % of control | dose: 25.0 mg/kg/injection, schedule: Q01DX009 (ip), vehicle: saline with Tween-80 103 % of control | [1] 105 % of control and 107 % of control and 121 % of control

O=C(O)C(=O)O.O=C(O)C(=O)O.O=C(O)C(=O)O.[Co]
inactive: dose: 6.25 mg/kg/injection, schedule: Q04DX002 (ip), vehicle: saline 91 % of control | dose: 12.5 mg/kg/injection, schedule: Q04DX002 (ip), vehicle: saline 100 % of control | dose: 25.0 mg/kg/injection, schedule: Q04DX002 (ip), vehicle: saline 91 % of control

CC(=O)C1=C(C)NC(C)=C(C(C)=O)C1c1cccc([N+](=O)[O-])c1
inactive: dose: 25.0 mg/kg/injection, schedule: Q04DX003 (ip), vehicle: saline with Tween-80 100 % of control | dose: 50.0 mg/kg/injection, schedule: Q04DX003 (ip), vehicle: saline with Tween-80 100 % of control | dose: 100.0 mg/kg/injection, schedule: Q04DX003 (ip), vehicle: saline with Tween-80 100 % of control and 91 % of control

O=CNc1c(Br)cc2c(c1Br)Cc1cc([N+](=O)[O-])ccc1-2
inactive: [2] 97 % of control | [3] 90 % of control | [4] 92 % of control | dose: 50.0 mg/kg/injection, schedule: Q01DX009 (ip), vehicle: saline 89 % of control

Nc1cccc(SC2CC(=O)N(c3ccc4c(c3)OCO4)C2=O)c1 (stereo not given)
inactive: dose: 100.0 mg/kg/injection, schedule: Q04DX003 (ip), vehicle: Klucel (hydroxypropylcellulose) (HPC) 92 % of control | dose: 200.0 mg/kg/injection, schedule: Q04DX003 (ip), vehicle: Klucel (hydroxypropylcellulose) (HPC) 101 % of control

O=C(OCC1OC(n2cnc3c(=S)nc[nH]c32)C(OC(=O)c2ccc(Cl)cc2)C1OC(=O)c1ccc(Cl)cc1)c1ccc(Cl)cc1 (stereo not given)
inactive: [5] 90 % of control | [1] 90 % of control | [6] 90 % of control | dose: 400.0 mg/kg/injection, schedule: Q01DX009 (ip), vehicle: saline with Tween-80 90 % of control

CCOC(=O)c1c[nH]c2ccc3c(nc(C)n3C)c2c1=O
inactive: dose: 30.0 mg/kg/injection, schedule: Q01DX005 (ip), vehicle: Klucel (hydroxypropylcellulose) (HPC) 102 % of control and 91 % of control | dose: 60.0 mg/kg/injection, schedule: Q01DX005 (ip), vehicle: Klucel (hydroxypropylcellulose) (HPC) 103 % of control and 110 % of control and 91 % of control | dose: 120.0 mg/kg/injection, schedule: Q01DX005 (ip), vehicle: Klucel (hydroxypropylcellulose) (HPC) 112 % of control (2×) and 113 % of control | dose: 240.0 mg/kg/injection, schedule: Q01DX005 (ip), vehicle: Klucel (hydroxypropylcellulose) (HPC) 115 % of control and 122 % of control and 123 % of control

NC(=O)Cc1[nH]ccc1C(=O)O
inactive: dose: 100.0 mg/kg/injection, schedule: Q01DX001 (ip), vehicle: saline with Tween-80 103 % of control | dose: 200.0 mg/kg/injection, schedule: Q01DX001 (ip), vehicle: saline with Tween-80 97 % of control | dose: 400.0 mg/kg/injection, schedule: Q01DX001 (ip), vehicle: saline with Tween-80 97 % of control

CCCCCCCCCCCCCCCCS(=O)(=O)c1ccc(S(=O)(=O)N/N=c2/sc3ccccc3n2C)cc1C(=O)O
inactive: [2] 103 % of control | [3] 97 % of control | [4] 94 % of control | dose: 100.0 mg/kg/injection, schedule: Q01DX009 (ip), vehicle: saline 88 % of control

CCOC(=O)C(Cc1ccc(O)cc1)NC(=O)c1cc2c(cn1)[nH]c1ccccc12 (stereo not given)
inactive: dose: 60.0 mg/kg/injection, schedule: Q01DX005 (ip), vehicle: saline with Tween-80 101 % of control | dose: 120.0 mg/kg/injection, schedule: Q01DX005 (ip), vehicle: saline with Tween-80 117 % of control

COc1ccc(CSC2=C(C#N)C(=O)NC3(CCCCC3)S2)cc1
inactive: [5] 112 % of control | [1] 95 % of control | [6] 97 % of control

NC(=S)N/N=C1/C(=O)N(C2CCCCCC2)C(=O)C1C(=O)NC1CCCCCC1 (stereo not given)
inactive: dose: 12.5 mg/kg/injection, schedule: Q01DX005 (ip), vehicle: saline with Tween-80 105 % of control | dose: 25.0 mg/kg/injection, schedule: Q01DX005 (ip), vehicle: saline with Tween-80 99 % of control | [7] 104 % of control and 90 % of control

CN1CC[As+](Cc2ccccc2)(c2ccccc2)CC1
inactive: dose: 100.0 mg/kg/injection, schedule: Q01DX001 (ip), vehicle: saline 87 % of control | dose: 200.0 mg/kg/injection, schedule: Q01DX001 (ip), vehicle: saline 102 % of control | dose: 400.0 mg/kg/injection, schedule: Q01DX001 (ip), vehicle: saline 104 % of control

Cc1cc2cc(C)c3c(Cl)nnc(Cl)c3c2o1
inactive: [7] 106 % of control | dose: 100.0 mg/kg/injection, schedule: Q01DX005 (ip), vehicle: saline with Tween-80 103 % of control | dose: 200.0 mg/kg/injection, schedule: Q01DX005 (ip), vehicle: saline with Tween-80 100 % of control
